For one experiment, the target named is T1, Lpd, SucB, AhpD (Mycobacterium tuberculosis, UniProt P9WHH9+P9WIS7+P9WQB5).
T1 construct: Lpd and SucB ORFs were amplified by PCR from M. tuberculosis H37Rv genomic DNA; The AhpD open reading frame (ORF) was amplified by PCR with engineered 5′ NdeI and 3′ NheI sites and cloned into pET11c; made in house; host or cells: E. coli BL21(DE3), pET11c
T1 sequence (P9WHH9 1-464): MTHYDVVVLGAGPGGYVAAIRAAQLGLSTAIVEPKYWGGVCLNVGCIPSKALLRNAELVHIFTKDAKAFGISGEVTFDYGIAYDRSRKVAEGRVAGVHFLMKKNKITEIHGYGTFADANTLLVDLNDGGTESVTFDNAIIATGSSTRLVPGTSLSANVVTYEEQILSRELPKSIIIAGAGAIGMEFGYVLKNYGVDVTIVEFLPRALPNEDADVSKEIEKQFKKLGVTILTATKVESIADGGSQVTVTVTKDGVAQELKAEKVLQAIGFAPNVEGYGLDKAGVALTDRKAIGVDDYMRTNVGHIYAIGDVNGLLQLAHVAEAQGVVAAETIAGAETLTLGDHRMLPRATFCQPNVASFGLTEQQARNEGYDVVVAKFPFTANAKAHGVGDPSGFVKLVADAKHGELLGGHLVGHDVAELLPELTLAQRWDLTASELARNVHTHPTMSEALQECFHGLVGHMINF
T1 sequence (P9WIS7 1-553): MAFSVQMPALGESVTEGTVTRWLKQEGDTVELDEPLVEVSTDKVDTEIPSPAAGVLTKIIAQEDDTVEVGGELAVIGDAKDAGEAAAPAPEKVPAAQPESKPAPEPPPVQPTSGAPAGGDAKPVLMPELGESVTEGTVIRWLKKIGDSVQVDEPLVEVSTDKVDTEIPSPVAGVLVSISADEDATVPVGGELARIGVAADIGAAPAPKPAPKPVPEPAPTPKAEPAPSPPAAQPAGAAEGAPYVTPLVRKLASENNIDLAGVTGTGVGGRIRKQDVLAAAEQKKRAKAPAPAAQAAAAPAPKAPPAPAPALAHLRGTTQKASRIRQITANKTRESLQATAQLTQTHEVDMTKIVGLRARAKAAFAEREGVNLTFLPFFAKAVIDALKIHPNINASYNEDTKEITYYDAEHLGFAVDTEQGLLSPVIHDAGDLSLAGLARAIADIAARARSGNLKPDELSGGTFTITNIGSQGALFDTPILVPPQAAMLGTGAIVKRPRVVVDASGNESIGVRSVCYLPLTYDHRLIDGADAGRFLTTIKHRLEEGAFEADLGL
T1 sequence (P9WQB5 1-177): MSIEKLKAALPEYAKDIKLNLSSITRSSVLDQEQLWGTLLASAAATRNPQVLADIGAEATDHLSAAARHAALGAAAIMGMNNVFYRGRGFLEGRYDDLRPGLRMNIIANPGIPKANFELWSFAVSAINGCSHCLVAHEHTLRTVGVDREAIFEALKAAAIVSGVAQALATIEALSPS
Briefly: DTNB screening assay (Lpd/SucB/AhpD protein mixture). The format is biochemical. The conditions noted are these: for Target: which of the 3 enzymes (AhpD, Lpd, SucB) is inhibited, and mode of inhibition. On the procedure: The screen was performed in Falcon Microtest 384-well 30 μl assay plates using the DTNB (5,5′-dithiobis-(2-nitrobenzoic acid)) assay.
The protein mixture (200 nM Lpd, 350 nM SucB, 36 nM AhpD) was dispensed into each well in 10 μl using a multi-channel pump dispenser. Compounds were added to the protein mix by a single dip (1 nl) with a pin-transfer robot. Plates with the protein mix and added compounds were incubated on a shaker for 30 min at room temperature. The concentration of compounds during incubation was 50 μM. Reaction mixture (200 μM NADH, 150 μM DTNB in 100 mM potassium phosphate, pH 7.0, 2 mM EDTA) was added to each well in 10 μl after pre-incubation and the plate was read at 405 nm for “time 0 min” values. Plates were incubated on a shaker for 30 min at room temperature to complete the reaction and were read at 405 nm for “time 30 min.” “Time 0 min” values were subtracted from “time 30 min” values and were taken as an end-point value for the assay. Control wells contained only protein and reaction mixtures without any compounds added and were taken as 100% activity values. The final concentrations of all components during the reaction were as follows: Lpd, 100 nM; SucB, 175 nM; AhpD, 18 nM; NADH, 100 μM; DTNB, 75 μM; potassium phosphate, 50 mM; EDTA, 1 mM; compounds, 25 μM.

A further experiment addresses T2, AhpD (Mycobacterium tuberculosis, UniProt P9WQB5).
T2 construct: The AhpD open reading frame (ORF) was amplified by PCR with engineered 5′ NdeI and 3′ NheI sites and cloned into pET11c; made in house; host or cells: E. coli BL21(DE3), pET11c
T2 sequence (P9WQB5 1-177): T1 sequence (P9WQB5 1-177)
As to the kind of experiment: Inhibition constant for the enzyme identified as target: AhpD. The format is biochemical.

Where two headings read alike, the source gives them in different places.

Regarding `O=C(O)CCN1C(=O)/C(=C\c2ccc(-c3cccc(C(F)(F)F)c3)o2)SC1=S` [2556-0286], at Lpd, SucB, AhpD, the IC50 turned out to be 4.4 µM and the Target result was “SucB (Com- pet Inhib.)”.

Regarding `O=C(O)c1ccc(N2C(=O)/C(=C/c3ccc(-c4ccc(Br)cc4)o3)C=C2c2ccccc2)cc1` [2150-0146], the concentration for half-maximal inhibition (IC50) at Lpd, SucB, AhpD (DTNB assay, 100 nM Lpd, 175 nM SucB, 18 nM AhpD, 100 μM NADH, 75 μM DTNB, pH 7.0, read-out: IC50) turned out to be 4.2 µM.

With `Cc1cc(C)cc(/N=C2/NC(=O)/C(=C\c3cc(Br)c(O)c([N+](=O)O)c3)S2)c1` [2368-0687], on Lpd, SucB, AhpD, the IC50 was found to be 10.5 µM and the Target result is “AhpD (Com- pet Inhib.)”. In addition, the inhibition constant Ki on AhpD was 5 µM.

With `O=C(O)CN1C(=O)/C(=C\c2ccc(-c3cccc(Cl)c3Cl)o2)SC1=S` [3229-2113], on Lpd, SucB, AhpD, the half-inhibitory concentration (IC50) was 8.2 µM and the Target result is on record as “SucB (Com- pet Inhib.)”.

Usually IC50 stands for the concentration that gives 50% inhibition. As a reminder, the Ki is a measure of affinity in units of concentration, obtained from inhibition or displacement.

Values taken from patent US20030190325A1, “Novel peroxiredoxin defense system from mycobacterium tuberculosis” (priority 2002, published 2003).
